Entries after “also recorded” stand apart in the source; their conditions may differ. Read-outs that look alike come from different tables or passages of the source. [4sT] = 4-thio-2'-deoxythymidine; [5BrU] = 5-bromo-2'-deoxyuridine; d = 2'-deoxy (DNA); r = 2'-OH (RNA)
Legend:
tat protein = assay: competition filter binding assay with chemically synthesized RNA (Table 4); parameters: species or system HIV-1; details: for IC50: 40 nM tat, read-out: D1/2; for competition for tat binding compared with unmodified RNA: competition filter binding, FIGS. 19, 21-24, 26; for drop in D1/2 compared with unmodified duplex: modified 17-mer + 14-mer duplex
Experimental: Competition binding reactions (0.5ml) in TK buffer (50 mM Tris.HCl(pH7.9 at 0.5M and 22° G), 20 mM KCl ) included 10nM ^32 p labeled 59-mer (ca. 20,000 cpm) , 40nM tat protein, 5 ug/ml calf thymus DNA, 2 ug/ml yeast tRNA, 40 units of RNAsin (Promega) and varying concentrations (0-300 nM) of unlabeled competitor RNA (59-mer [SEQ ID NO: 1; ], 29-mer [SEQ ID NO: 12] or preannealed (slow cooled from 90° C.) 14-mer [SEQ ID NO: 14; nucleotides 2-15] and 17-mer [SEQ ID NO: 13; nucleotides 1- 17]). Binding was allowed to take place for 2-15 minutes on ice and each reaction was filtered through a twice prewashed (0.6 ml of ice-cold TK buffer) Millipore GS filter (2.5 cm disks, 0.22 um pore) and the filter washed with TK buffer (0.6 ml). Dried filters were counted by liquid scintillation. Results were plotted on a graph (FIG. 19) showing counts retained on the filter versus the concentration of competitor RNA added.
Competition binding reactions (0.5 ml) in TK buffer included 10 nM duplex formed from ^32 P-labeled and unlabeled 29-mer (ca. 20,000 cpm) or 10 nM duplex formed from ^32 P-labeled and unlabeled 17-mer annealed to unlabeled 14-mer, 40 nM tat protein, 5 ug/ml calf thymus DNA, 2 ug/ml yeast tRNA and varying concentrations (0-120 nM) of unlabeled competitor RNA (29-mer or modified 29-mer (FIG. 21), or 17-mer +14-mer duplex or modified 7-mer +14-mer duplex (22, 23 and 24) and were carried out as described above.
Competition binding reactions (0-5 ml) in TK buffer included 10 nM duplex formed from ^32 P-labelled (ca. 20,000 cpm) and unlabelled 18-mer [SEQ ID NO: 13] annealed to unlabelled 15-mer [SEQ ID NO: 14], 40 nM tat protein, 5 ug/ml calf thymus DNA, 2 ug/ml yeast TRNA and varying concentrations (0-120 nM) of unlabelled competitor RNA (59-mer [SEQ ID NO: 1] or 18-mer [SEQ ID NO: 13]+15-mer [SEQ ID NO: 14] duplex, or modified 18-mer [SEQ ID NO: […]

HIV-1 Tat = HIV-1 Tat (Human immunodeficiency virus 1, UniProt P04608 P04608:1-86); assay: competition; D1/2; wild type 90 nM
[1] = BrdU series, relative to 14 +17 duplex
[2] = BrdU series, 32P-end-labelled 29-mer 10 nM, competitor 0-120 nM
[3] = 32P-end-labelled 29-mer 10 nM, competitor 0-120 nM
[4] = relative to 29-mer, 32P-end-labelled 29-mer 10 nM
[5] = 32P-end-labeled 17-mer annealed to 14-mer 10 nM, competitor 0-120 nM (dT series)
[6] = relative to 14 +17 duplex, 32P-end-labeled 17-mer annealed to 14-mer
[7] = 32P-end labelled 18-mer annealed to 15-mer
[8] = 32P-end labelled 18-mer annealed to 15-mer 10 nM, competitor 0-120 nM
[9] = relative to 14 +17 duplex, 32P-end labelled 18-mer annealed to 15-mer
[10] = 32P-labeled 59-mer transcript 10 nM

## BrdU-23: 14-mer annealed to 17-mer where U23 is replaced by 5-bromo-2'-deoxyuridine (AGCCAGAUUUGAGCAGC; DNA at 8, [5BrU] at 8, other sugars and backbone not given here; annealed to a 14-mer strand, further chemistry not fully specified)
Tat protein; [1]
  Krel (29 or 14 +17): 0.6
Tat protein; [2]
  IC50: 70 nM
Tat protein
  competition for tat binding compared with unmodified RNA: competes for tat binding less well
  drop in D1/2 compared with unmodified duplex: 2 fold

## 2'-OmeU-23: chemically synthesized 29-mer where U23 is replaced by 2'-O-methyluridine (GCCAGANUUGAGCCUGGGAGCUCUCUGGC; 2'-O-methyluridine at U23, chemistry not fully specified)
Tat protein; [3]
  IC50: 50 nM
Tat protein; listed as SEQ ID NO: 16
  competition for tat binding compared with unmodified RNA: competed as well as as unmodified 29-mer; also recorded: competes for tat binding as well as unmodified 29-mer
Tat protein; [4]
  Krel (29 or 14 +17): 1.2

## dT-24: 14-mer annealed to 17-mer where U24 is replaced by 2'-deoxythymidine (AGCCAGAUNUGAGCAGC; 2'-deoxythymidine at 24, annealed 14-mer without entry, chemistry not fully specified)
Tat protein; [5]
  IC50: 30 nM
Tat protein
  competition for tat binding compared with unmodified RNA: no effect on competition
Tat protein; listed as SEQ ID NO: 18
  competition for tat binding compared with unmodified RNA: competes for tat binding as well as unmodified duplex
Tat protein; [6]
  Krel (29 or 14 +17): 1.2

## 4-thioT-24: 15-mer annealed to 18-mer where U24 is replaced by 4-thio-2'-deoxythymidine (AGCCAGAUTUGAGCAGCU; sugars from the 5' end r8 d1 r9, [4sT] at 9, backbone not given here; annealed to 15-mer strand)
Tat protein; [7]
  Krel (59-mer): 0.7
Tat protein; [8]
  IC50: 25 nM
Tat protein
  competition for tat binding compared with unmodified RNA: competes for binding better than unsubstituted duplex
Tat protein; [9]
  Krel (29 or 14 +17): 2.0

## dU-23: chemically synthesized 29-mer where U23 is replaced by 2'-deoxyuridine (GCCAGANUUGAGCCUGGGAGCUCUCUGGC; 2'-deoxyuridine at 23, chemistry not fully specified)
Tat protein; [3]
  IC50: 55 nM
Tat protein; listed as SEQ ID NO: 15
  competition for tat binding compared with unmodified RNA: competed as well as as unmodified 29-mer; also recorded: competes for tat binding as well as unmodified 29-mer
Tat protein; [4]
  Krel (29 or 14 +17): 1.1

## BrdU-25: 14-mer annealed to 17-mer where U25 is replaced by 5-bromo-2'-deoxyuridine (AGCCAGAUUUGAGCAGC; sugars from the 5' end r9 d1 r7, [5BrU] at 10, backbone not given here; annealed to 14-mer strand)
Tat protein; [1]
  Krel (29 or 14 +17): 1.1
Tat protein; [2]
  IC50: 35 nM
Tat protein
  competition for tat binding compared with unmodified RNA: no effect on competition
Tat protein; listed as SEQ ID NO: 22
  competition for tat binding compared with unmodified RNA: competes for tat binding as well compared to unsubstituted duplex

## 4-thioT-25: 15-mer annealed to 18-mer where U25 is replaced by 4-thio-2'-deoxythymidine (AGCCAGAUUTGAGCAGCU; DNA at 10, [4sT] at 10, other sugars and backbone not given here; annealed to a 15-mer strand, further chemistry not fully specified)
Tat protein; [7]
  Krel (59-mer): 1.5
Tat protein; [8]
  IC50: 12 nM
Tat protein; listed as SEQ ID NO: 25
  competition for tat binding compared with unmodified RNA: competes for binding better than unsubstituted duplex; also recorded: competes as well as unmodified 59-mer
Tat protein; [9]
  Krel (29 or 14 +17): 4.2

## r(GCCAGAUUUGAGCCUGGGAGCUCUCUGGC) (RNA, backbone not given here) [29-mer, chemically synthesized 29-mer, top part of TAR including loop and U-rich bulge]
Tat protein; [3]
  IC50: 60 nM
Tat protein; [10]
  Krel (59-mer): 0.4
  increase in D1/2 compared with 59-mer: 2-3 fold
Tat protein; 32P-labeled 59-mer transcript 10 nM, competitor 0-300 nM
  IC50: 100 nM
Tat protein
  competition for tat binding compared with unmodified RNA: competes for binding to tat almost as well as a 59-mer RNA transcript
Tat protein; [4]
  Krel (29 or 14 +17): 1.0

## dT-25: 14-mer annealed to 17-mer where U25 is replaced by 2'-deoxythymidine (AGCCAGAUUNGAGCAGC; 2'-deoxythymidine at 25, annealed 14-mer without entry, chemistry not fully specified)
Tat protein; [5]
  IC50: 90 nM
Tat protein
  competition for tat binding compared with unmodified RNA: competes less well compared to unmodified duplex
  drop in D1/2 compared with unmodified duplex: 2-3 fold
Tat protein; [6]
  Krel (29 or 14 +17): 0.4

## BrdU-24: 14-mer annealed to 17-mer where U24 is replaced by 5-bromo-2'-deoxyuridine (AGCCAGAUUUGAGCAGC; DNA at 9, [5BrU] at 9, other sugars and backbone not given here; annealed to a 14-mer strand, further chemistry not fully specified)
Tat protein; [1]
  Krel (29 or 14 +17): 1.0
Tat protein; [2]
  IC50: 45 nM
Tat protein
  competition for tat binding compared with unmodified RNA: no effect on competition
Tat protein; listed as SEQ ID NO: 21
  competition for tat binding compared with unmodified RNA: competes as well compared to unsubstituted duplex

## dT-23: 14-mer annealed to 17-mer where U23 is replaced by 2'-deoxythymidine (AGCCAGANUUGAGCAGC; 2'-deoxythymidine at 23, annealed 14-mer without entry, chemistry not fully specified)
Tat protein; [5]
  IC50: 35 nM
Tat protein
  competition for tat binding compared with unmodified RNA: no effect on competition
Tat protein; listed as SEQ ID NO: 17
  competition for tat binding compared with unmodified RNA: competes for tat binding as well as unmodified duplex
Tat protein; [6]
  Krel (29 or 14 +17): 1.1

## 15 +18: duplex of unmodified 18-mer [SEQ ID NO: 13] and 15-mer [SEQ ID NO: 14] containing a U-rich bulge (chain 1 AGCCAGAUUUGAGCAGCU; chain 2 AGCUGCUCUCUGGCU; RNA, phosphodiester; duplex with U-rich bulge)
Tat protein; [7]
  Krel (59-mer): 0.3
Tat protein; [8]
  IC50: 65 nM
Tat protein
  competition for tat binding compared with unmodified RNA: competed as well as 17-mer
Tat protein; [9]
  Krel (29 or 14 +17): 0.8

B1: TAR bulge CC (ssRNA)
RNA: GGGUCUCUCUGGUUAGACCAGACCGAGCCUGGGAGCUCUCUGGCUAACUAGGGAACCC
HIV-1 Tat
  IC50: 2370 nM

B2: TAR bulge CUU (ssRNA)
RNA: GGGUCUCUCUGGUUAGACCAGACUUGAGCCUGGGAGCUCUCUGGCUAACUAGGGAACCC
modifications: [23]
HIV-1 Tat
  IC50: 630 nM

B3: TAR U40 to A40 (ssRNA)
RNA: GGGUCUCUCUGGUUAGACCAGAUUUGAGCCUGGGAGCUCACUGGCUAACUAGGGAACCC
HIV-1 Tat
  IC50: 5620 nM

B4: TAR bulge CCC (ssRNA)
RNA: GGGUCUCUCUGGUUAGACCAGACCCGAGCCUGGGAGCUCUCUGGCUAACUAGGGAACCC
modifications: [23,24,25]
HIV-1 Tat
  IC50: 1780 nM

B5: TAR bulge CUC (ssRNA)
RNA: GGGUCUCUCUGGUUAGACCAGACUCGAGCCUGGGAGCUCUCUGGCUAACUAGGGAACCC
modifications: [23,25]
HIV-1 Tat
  IC50: 2140 nM

B6: TAR bulge CCU (ssRNA)
RNA: GGGUCUCUCUGGUUAGACCAGACCUGAGCCUGGGAGCUCUCUGGCUAACUAGGGAACCC
modifications: [23,24]
HIV-1 Tat
  IC50: 1330 nM

B7: TAR bulge U (ssRNA)
RNA: GGGUCUCUCUGGUUAGACCAGAUGAGCCUGGGAGCUCUCUGGCUAACUAGGGAACCC
modifications: [23-25]
HIV-1 Tat
  IC50: 673 nM

Reference: patent US5821046A, “RNA oligonucleotides that bind HIV tat protein” (RiboTargets Holdings PLC, priority 1990, dated 1998)
